#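 Values below derive from 48-hour exposures of cells grown in 96-well plates, with endpoints linearly interpolated between the two concentrations bracketing the appropriate inhibition level. GI50: concentration for 50% inhibition of growth. TGI denotes the concentration required for complete inhibition of growth.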
# What was measured:
# Experiment in all cases: growth of human tumour cells (NCI), 48 h
# BT-549 breast = test system: BT-549 breast
# RXF 393 renal = test system: RXF 393 renal
# HCC-2998 colon = test system: HCC-2998 colon
# DU-145 prostate = test system: DU-145 prostate
# CAKI-1 renal = test system: CAKI-1 renal
# SK-MEL-5 melanoma = test system: SK-MEL-5 melanoma
# UO-31 renal = test system: UO-31 renal
# SK-MEL-28 melanoma = test system: SK-MEL-28 melanoma
# UACC-62 melanoma = test system: UACC-62 melanoma
# ACHN renal = test system: ACHN renal
# MCF7 breast = test system: MCF7 breast
# SW-620 colon = test system: SW-620 colon
# RPMI-8226 leukemia = test system: RPMI-8226 leukemia
# KM12 colon = test system: KM12 colon
# IGROV1 ovarian = test system: IGROV1 ovarian
# NCI/ADR-RES ovarian = test system: NCI/ADR-RES ovarian
# COLO 205 colon = test system: COLO 205 colon
# OVCAR-4 ovarian = test system: OVCAR-4 ovarian
# NCI-H23 lung = test system: NCI-H23 lung
# 786-0 renal = test system: 786-0 renal
# HOP-92 NSCLC = test system: HOP-92 NSCLC
# MDA-MB-435 = test system: MDA-MB-435
# SNB-19 CNS = test system: SNB-19 CNS
# MALME-3M melanoma = test system: MALME-3M melanoma
# NCI-H522 lung = test system: NCI-H522 lung
# OVCAR-3 ovarian = test system: OVCAR-3 ovarian
# SN12C renal = test system: SN12C renal
# PC-3 prostate = test system: PC-3 prostate
# OVCAR-5 ovarian = test system: OVCAR-5 ovarian
# SK-MEL-2 melanoma = test system: SK-MEL-2 melanoma
# U251 CNS = test system: U251 CNS
# NCI-H460 lung = test system: NCI-H460 lung
# SF-539 CNS = test system: SF-539 CNS
# HCT-15 colon = test system: HCT-15 colon
# SNB-75 CNS = test system: SNB-75 CNS
# HT29 colon = test system: HT29 colon
# EKVX NSCLC = test system: EKVX NSCLC
# CCRF-CEM leukemia = test system: CCRF-CEM leukemia
# TK-10 renal = test system: TK-10 renal
# MDA-MB-231 breast = test system: MDA-MB-231 breast
# A498 renal = test system: A498 renal
# MOLT-4 leukemia = test system: MOLT-4 leukemia
# OVCAR-8 ovarian = test system: OVCAR-8 ovarian
# UACC-257 melanoma = test system: UACC-257 melanoma
# HOP-62 NSCLC = test system: HOP-62 NSCLC
# SF-295 CNS = test system: SF-295 CNS
# SF-268 CNS = test system: SF-268 CNS
# K-562 leukemia = test system: K-562 leukemia
# LOX IMVI melanoma = test system: LOX IMVI melanoma
# A549 NSCLC = test system: A549 NSCLC
# NCI-H226 lung = test system: NCI-H226 lung
# SK-OV-3 ovarian = test system: SK-OV-3 ovarian
# HCT-116 colon = test system: HCT-116 colon
# HS 578T breast = test system: HS 578T breast
# M14 melanoma = test system: M14 melanoma
smiles,measurement,setting,value
O=C1N=C2c3c(sc4c3CCCC4)N=CN2C1N=Nc1ccc(Cl)cc1 (stereo not given),GI50,BT-549 breast,1.44 µM
same,TGI,BT-549 breast,18.1 µM
same,GI50,RXF 393 renal,36.6 µM
same,TGI,RXF 393 renal,> 100 µM
same,GI50,HCC-2998 colon,24.4 µM
same,TGI,HCC-2998 colon,91.2 µM
same,GI50,DU-145 prostate,0.291 µM
same,TGI,DU-145 prostate,25.3 µM
same,GI50,CAKI-1 renal,30.9 µM
same,TGI,CAKI-1 renal,> 100 µM
same,GI50,SK-MEL-5 melanoma,3.61 µM
same,TGI,SK-MEL-5 melanoma,15 µM
same,GI50,UO-31 renal,39.3 µM
same,TGI,UO-31 renal,> 100 µM
same,GI50,SK-MEL-28 melanoma,35.6 µM
same,TGI,SK-MEL-28 melanoma,> 100 µM
same,GI50,UACC-62 melanoma,16.7 µM
same,TGI,UACC-62 melanoma,47.1 µM
same,GI50,ACHN renal,32.3 µM
same,TGI,ACHN renal,> 100 µM
same,GI50,MCF7 breast,20 µM
same,TGI,MCF7 breast,66.4 µM
same,GI50,SW-620 colon,23.1 µM
same,TGI,SW-620 colon,> 100 µM
same,GI50,RPMI-8226 leukemia,3.2 µM
same,TGI,RPMI-8226 leukemia,27.6 µM
same,GI50,KM12 colon,13.6 µM
same,TGI,KM12 colon,44 µM
same,GI50,IGROV1 ovarian,49.6 µM
same,TGI,IGROV1 ovarian,> 100 µM
same,GI50,NCI/ADR-RES ovarian,26.2 µM
same,TGI,NCI/ADR-RES ovarian,> 100 µM
same,GI50,COLO 205 colon,10.7 µM
same,TGI,COLO 205 colon,39.3 µM
same,GI50,OVCAR-4 ovarian,51.9 µM
same,TGI,OVCAR-4 ovarian,> 100 µM
same,GI50,NCI-H23 lung,12.3 µM
same,TGI,NCI-H23 lung,63.9 µM
same,GI50,786-0 renal,39.5 µM
same,TGI,786-0 renal,> 100 µM
same,GI50,HOP-92 NSCLC,1.95 µM
same,TGI,HOP-92 NSCLC,20.2 µM
same,GI50,MDA-MB-435,19.8 µM
same,TGI,MDA-MB-435,58.1 µM
same,GI50,SNB-19 CNS,25.2 µM
same,TGI,SNB-19 CNS,> 100 µM
same,GI50,MALME-3M melanoma,23.9 µM
same,TGI,MALME-3M melanoma,87.2 µM
same,GI50,NCI-H522 lung,26.6 µM
same,TGI,NCI-H522 lung,> 100 µM
same,GI50,OVCAR-3 ovarian,21.9 µM
same,TGI,OVCAR-3 ovarian,> 100 µM
same,GI50,SN12C renal,28.8 µM
same,TGI,SN12C renal,> 100 µM
same,GI50,PC-3 prostate,13 µM
same,TGI,PC-3 prostate,75.3 µM
same,GI50,OVCAR-5 ovarian,22.6 µM
same,TGI,OVCAR-5 ovarian,> 100 µM
same,GI50,SK-MEL-2 melanoma,> 100 µM
same,TGI,SK-MEL-2 melanoma,> 100 µM
same,GI50,U251 CNS,20.2 µM
same,TGI,U251 CNS,> 100 µM
same,GI50,NCI-H460 lung,27.8 µM
same,TGI,NCI-H460 lung,79.8 µM
same,GI50,SF-539 CNS,15.9 µM
same,TGI,SF-539 CNS,46.8 µM
same,GI50,HCT-15 colon,37.2 µM
same,TGI,HCT-15 colon,> 100 µM
same,GI50,SNB-75 CNS,> 100 µM
same,TGI,SNB-75 CNS,> 100 µM
same,GI50,HT29 colon,11.7 µM
same,TGI,HT29 colon,39.8 µM
same,GI50,EKVX NSCLC,7.79 µM
same,TGI,EKVX NSCLC,39.1 µM
same,GI50,CCRF-CEM leukemia,13.8 µM
same,TGI,CCRF-CEM leukemia,87.9 µM
same,GI50,TK-10 renal,37.5 µM
same,TGI,TK-10 renal,> 100 µM
same,GI50,MDA-MB-231 breast,20.1 µM
same,TGI,MDA-MB-231 breast,> 100 µM
same,GI50,A498 renal,21.3 µM
same,TGI,A498 renal,47.4 µM
same,GI50,MOLT-4 leukemia,13 µM
same,TGI,MOLT-4 leukemia,53 µM
same,GI50,OVCAR-8 ovarian,31.3 µM
same,TGI,OVCAR-8 ovarian,> 100 µM
same,GI50,UACC-257 melanoma,34.1 µM
same,TGI,UACC-257 melanoma,> 100 µM
same,GI50,HOP-62 NSCLC,41.1 µM
same,TGI,HOP-62 NSCLC,> 100 µM
same,GI50,SF-295 CNS,25.4 µM
same,TGI,SF-295 CNS,86.2 µM
same,GI50,SF-268 CNS,34.6 µM
same,TGI,SF-268 CNS,> 100 µM
same,GI50,K-562 leukemia,5.13 µM
same,TGI,K-562 leukemia,87.1 µM
same,GI50,LOX IMVI melanoma,29.8 µM
same,TGI,LOX IMVI melanoma,> 100 µM
same,GI50,A549 NSCLC,42.2 µM
same,TGI,A549 NSCLC,> 100 µM
same,GI50,NCI-H226 lung,22.8 µM
same,TGI,NCI-H226 lung,> 100 µM
same,GI50,SK-OV-3 ovarian,47.2 µM
same,TGI,SK-OV-3 ovarian,97.6 µM
same,GI50,HCT-116 colon,17.8 µM
same,TGI,HCT-116 colon,> 100 µM
same,GI50,HS 578T breast,29.8 µM
same,TGI,HS 578T breast,> 100 µM
same,GI50,M14 melanoma,24.7 µM
same,TGI,M14 melanoma,> 100 µM

# From PubChem BioAssay (NCI)
